Test results published in patent US20130137767A1, “Methods and Compositions for Treating Arthritis with Docosahexaenoic Acid” (DSM IP ASSETS B.V., priority 2010, published 2013).

How the values were obtained:
Type in all cases: in vivo, Male DBA/1O1aHsd mice
[1] = system: Collagen-Induced Arthritis (CIA); assay: Collagen-Induced Arthritis, ethyl esters (CIA-EE, Example 1): clinical arthritis severity and incidence; conditions: for arthritis severity score / arthritis severity score as area under the curve (AUC): days 18-45; for arthritis severity score as area under the curve (AUC): FIG. 2
Source text: The anti-arthritic activity of DHA, DPAn6, DHA/DPAn6 (DHA S-oil ratio) and DHA/EPA (fish oil ratio) ethyl esters (EE) in a chronic mouse model of inflammation, Collagen-Induced Arthritis (CIA), was studied.
Male DBA/1O1aHsd mice (3.5-4 weeks of age) were randomized by weight and enrolled in the study after a three day quarantine in which animals were fed the AlN-93G diet with a modified base fat: 1 part flax seed oil (flax), 9 parts hydrogenated coconut oil (HCOC) and 21 parts high-oleic safflower oil (HO-SAFF). 15 animals were enrolled per study group, with the exception of the No Disease control that had 4 animals. Study groups consisted of:
(§1) The appropriate ethyl esters were blended into the base diet to provide approximately 2500 and 5000 mg/kg polyunsaturated fatty acid (PUFA) per day. The human equivalent doses (HED) were approximately 12 g/day and 22 g/day, respectively. The 2500 mg/kg EE diets contained the following fat blend: 1 part flax, 12 parts HCOC and 23 parts HO-SAFF. The 5000 mg/kg EE diets contained a fat blend consisting of: 1 part flax, 5 parts HCOC and 20 parts HO-SAFF. All study diets provided a total of 7% fat. Animals were fed study diets for approximately 30 days prior to the first collagen injection at day 0 and remained on the diets until study termination (day 45). Animals in the No Disease control and Dexamethasone groups were fed the diet containing OA-EE. Following a second collagen injection on day 21, arthritis severity was scored daily. Blood samples were collected at day 21 and day 45. Joints, 6 per an animal, were collected for histology and pathology on day 45.
Data was analyzed and compared by one-way ANOVA using the Bonferroni post-test to compare treatment groups to respective placebo control and to make comparisons between treatment groups (GraphPad, Prism, Version 4.0). Effects were considered to be statistically significant at p<0.05.
Arthritis severity was assessed from day 18 to 45; a score of 0 represented an animal devoid of clinical arthritis symptoms and a score of 5 represented advanced clinical arthritis. Scores from 0-5 (most severe) were assigned to each digit on the fore and hind limbs based on erythema, swelling and mobility and the mean arthritis severity per animal was determined.
The incidence of disease was reduced in animals treated with DHA-EE (FIG. 3A/B). A clinical arthritis score greater than 0 was considered diseased. The incidence of disease at day 45 was 13% in animals treated with 2500 mg/kg DHA-EE, as compared to 100% disease incidence in OA-EE (placebo) control animals.

[2] = CIA-EE (Example 1): serum phospholipid fatty acid levels by FAME analysis
Method: as §1
Serum phospholipid fatty acid levels were determined by FAME analysis (FIG. 5). Treatment with DHA-EE elevated serum DHA levels 3-4 fold, as compared the OA-EE (placebo) control, whereas DPAn6-EE elevated serum DPAn6 20-35 fold. Serum EPA levels were elevated when dosed with the DHA/EPA-EE blend 8-15 fold and 4-7 fold when dosed with DHA-EE, as compared to the OA-EE (placebo) control. […]

[3] = system: Collagen-Induced Arthritis (CIA); assay: Collagen-Induced Arthritis, EE vs. TG (Example 2): clinical arthritis severity and incidence; conditions: for incidence of disease: day 45
Source text: The anti-arthritic activity of DHA, DHA/DPAn6 and DHA/EPA, administered as EE or triglyceride oils (TG), in a chronic mouse model of inflammation, Collagen-Induced Arthritis (CIA), was studied. Methods used in this study were similar to those described in Example 1 (CIA-EE Study). Study groups consisted of: Male DBA/1O1aHsd mice were enrolled, quarantined, and feed study diets following the protocols described in Example 1 (CIA-EE Study). EE and TG oils were blended into the base diet to provide 2500 mg/kg PUFA per day (HED approximately 12 g/day). A single dose of PUFA per day (HED approximately 5 g/day). The 1000 mg/kg DHA-EE dose was equivalent to the amount of DHA administered in the DHA/EPA-EE blend. The fat blend the 2500 mg/kg EE diets consisted of approximately: 1 part flax, 12 parts HCOC and 23 parts HO-SAFF; 1000 mg/kg EE diet: 1 part flax, 12 parts HCOC and 32 parts HO-SAFF; 2500 mg/kg DHASCO® oil diet: 1 part flax, 8 parts HCOC, 17 parts HO-SAFF and 15 parts soybean oil; 2500 mg/kg DHA-S oil diet: 1 part flax, 5 parts HCOC, 16 parts HO-SAFF and 6 parts soybean oil. 2500 mg/kg DHA/EPA (Nordic Naturals fish oil) diet: 1 part flax, 21 parts HCOC, 18 parts HO-SAFF and 13 parts soybean oil. The monounsaturate control animals received a fat blend of 1 part flax, 7 parts HCOC and 25 parts HO-SAFF. All study diets provided a total of 7% fat. Animals in the No Disease control and Dexamethasone groups were fed the diet containing OA-EE. Mice received collagen injections on day 0 and day 21, as described previously. Blood samples were collected at day 21 and day 45. At day 45, joints were collected for histology and pathology. Data was analyzed and compared by one-way ANOVA using the Bonferroni post-test to compare treatment groups to respective placebo control and to make comparisons between treatment groups (GraphPad, Prism, Version 4.0). Effects were considered to be statistically significant at p<0.05. Arthritis severity was assessed from day 18 to 45; a score of 0 represented an animal devoid of clinical arthritis symptoms and a score of 5 represented advanced clinical arthritis. Scores from 0-5 (most severe) were assigned to each digit on the fore and hind limbs based on erythema, swelling and mobility the mean arthritis severity per animal was determined.

CC/C=C\C/C=C\C/C=C\C/C=C\C/C=C\C/C=C\CCC(=O)OCC [DHA-EE]
arthritis severity score ([1]; 2500 mg/kg in diet, FIG. 1A): reduced arthritis severity
arthritis severity score as area under the curve (AUC) ([1]; 2500 mg/kg, vs 2500 mg/kg OA-EE (placebo) control): significantly reduced arthritis severity
arthritis severity, comparison between treatment groups ([1]; 5000 mg/kg): more potent than DHA/EPA-EE
arthritis severity score ([1]; 5000 mg/kg in diet, FIG. 1B): reduced arthritis severity
arthritis severity score as area under the curve (AUC) ([1]; 5000 mg/kg, vs 5000 mg/kg OA-EE (placebo) control): significantly reduced arthritis severity
incidence of disease (clinical arthritis score greater than 0) ([1]; day 45, 2500 mg/kg, FIG. 3A): 13%
arthritis severity, comparison with dexamethasone ([1]; dose not stated in sentence (2500 and 5000 mg/kg tested), dexamethasone 0.1 mg/kg): as effective as dexamethasone
serum ARA levels, decrease vs OA-EE (placebo) control ([2]; 2500 mg/kg): approximately 90%
serum ARA levels, decrease vs OA-EE (placebo) control ([2]; 5000 mg/kg): approximately 90%
arthritis severity score as area under the curve (AUC) ([3]; 1000 mg/kg, days 18-45, vs OA-EE (placebo) control, FIG. 8B): significantly reduced arthritis
arthritis severity, comparison between treatment groups ([3]; 2500 mg/kg PUFA, Dexamethasone 0.1 mg/kg): more potent than DHA-EPA-EE
arthritis severity score as area under the curve (AUC) ([3]; 2500 mg/kg PUFA, days 18-45, vs monounsaturated or OA-EE (placebo) control, FIG. 8A/B): significantly reduced arthritis
incidence of disease ([3]; 1000 mg/kg, FIG. 9B): 73%
incidence of disease ([3]; 2500 mg/kg PUFA, FIG. 9A/B): 60%
arthritis severity score ([3]; days 18-45, FIG. 7A/B, dose not stated): reduced arthritis severity
